Measured values reported in the METLIN SMRT retention time set (Domingo-Almenara et al. 2019).

test: gradient 5% acetonitrile 3 min, to 50% in 2 min, to 85% in 15 min, held 3 min, 100 µL/min; conditions: column: Zorbax Extend-C18 2.1 x 50 mm; eluents: water / acetonitrile, 0.1% formic acid
Procedure, shortened: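 Values are retention times taken from adduct peaks that software picked and an analyst inspected. The pure standards were run as mixtures of ~100 molecules on HPLC linked to a quadrupole time-of-flight mass spectrometer, in positive and negative ionization mode. A Zorbax Extend-C18 column (2.1 × 50 mm, 1.8 μm) was used at 100 μL/min with water and acetonitrile, each including 0.1% formic acid.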

Structure (SMILES)	RP-LC retention time [s]
CC1=C(c2ccc(F)cc2)S(=O)(=O)N=C1N1CCC(NC(=O)CCC(C)C)CC1	844
Cc1oc(-c2[nH]ncc2C(=O)N(C)C)cc1S(=O)(=O)Nc1cccc(F)c1	668
CC(CCc1ccccc1)NC(=O)C1CCN(C(=O)C2Sc3ccccc3NC2=O)CC1 (stereo unspecified)	811
COc1cc2c(cc1O)CCC1C2CC[C@@]2(C)C1CC[C@@H]2O (stereo partly specified)	836
O=C(c1cccc(Cl)c1)N1CCC(n2c(-c3ccco3)nc3cccnc32)C1 (stereo unspecified)	776
Cc1cc(N2CCN(c3ccccn3)CC2)n2nc(C(F)(F)F)c(-c3ccccc3)c2n1	855
Fc1ccc(OCc2nnc3sc(COc4ccccc4)nn23)cc1	938
COCCN1C(=O)[C@H]2CN(Cc3ccc(OC)c(OC)c3OC)C[C@H]2C1=O	799
O=C1CCCc2cc(S(=O)(=O)N3CCC(C(=O)NCc4ccco4)CC3)ccc2N1	678
CCCCn1cc(S(=O)(=O)N2CCN(c3ccccc3F)CC2)c2cccnc21	1190
COCCNC(=O)c1ccc2c(c1)CCCN2C(=O)c1ccc(Cl)cc1	752
O=C(Nc1nc(-c2ccccc2)c(-c2ccccc2)s1)C1=COCCO1	1060
CC(=O)N1CCCC1c1nc2ccccc2n1CC(=O)N1CCCCC1 (stereo unspecified)	594
Cc1[nH]c(C(=O)NC2CCCCC2)c(C)c1S(=O)(=O)N1CCCC1	843
CC(C)Cc1cc(-c2nn3c(-c4ccccc4F)nnc3s2)n[nH]1	915
O=C(NCCOc1ccc(F)cc1)C(c1ccccc1)n1cccc1 (stereo unspecified)	927
CC(C)(C)NC(=O)C1CCN(S(=O)(=O)c2cc(-c3noc(C4CCC4)n3)cs2)CC1	1030
CC1CCCCN1C(=O)CSc1nc(-c2ccccc2)no1 (stereo unspecified)	1070

Structure (SMILES)	RP-LC retention time [s]
O=C1NCCN2CC3(CCN(S(=O)(=O)Cc4ccccc4)CC3)CC12 (stereo unspecified)	594
O=C(O)CCC1(c2ccccc2)NC(=O)NC1=O (stereo unspecified)	651
CCC(c1cccs1)N1C(=O)[C@H]2CN(S(=O)(=O)c3ccccc3F)C[C@H]2C1=O (stereo partly specified)	972
CCc1ccc(CNC(=O)c2cn3ccccc3n2)cc1	757
Cc1nn(-c2ccccc2)c(C)c1S(=O)(=O)N1CCC(C(=O)Nc2ccc(C#N)cc2)CC1	938
CC1=C(c2ccc(F)cc2)S(=O)(=O)N=C1N1CCCN(C(=O)c2ccoc2)CC1	752
CN(CCc1noc(COc2ccc(Cl)cc2)n1)C(=O)NCc1ccccc1	944
O=C(NCCN1CCCC1)C1CCN(c2nccnc2Sc2ccccc2)CC1	645
COC(=O)c1ccc(NC(=O)N2CCCC2c2cc(C(C)C)no2)cc1 (stereo unspecified)	845
CN1CCC(=C2c3ccccc3C(O)c3ccccc32)CC1 (stereo unspecified)	665
O=C(NC1CC1)c1ncoc1-c1ccccc1C(=O)N1CCCCC1	689
CCc1onc(C)c1C1CCCN1C(=O)c1cc(-c2ccc3c(c2)OCO3)on1 (stereo unspecified)	928
CCOC(=O)C1CCN(C(=O)C2CCCN2S(=O)(=O)c2cc3c(cc2Cl)NC(=O)CO3)CC1 (stereo unspecified)	710
CCC(=O)N(C1CCOCC1)C1CCN(S(=O)(=O)c2ccc(Cl)c(C)c2)CC1	954
CCOc1ccc(-c2noc(Cc3nc(-c4ccc(F)cc4)cs3)n2)cc1	1290
CCCCCCCC1(C)NC(=O)NC1=O (stereo unspecified)	817
O=C(NCCc1ccccc1)C1CC(=O)N(CCc2c[nH]c3ccc(F)cc23)C1 (stereo unspecified)	867
Cc1ccc(S(=O)(=O)N2CCC(n3cnnc3C(C)C)CC2)cc1F	756

Second part, the compound after the results:

RP-LC retention time [s]	Structure (SMILES)
988	COc1ccc(-c2nnc(COc3cccc(NC(=O)c4ccc(C)s4)c3)o2)cc1
892	Cc1cc(C)c(CNC(=O)C2CC(=O)N(c3cccc(NC(=O)C4CCC4)c3)C2)c(C)c1 (stereo unspecified)
736	COC(=O)CNC(=O)c1sc2ncccc2c1-n1cccc1
955	Cc1ccc(NC(=O)c2ccccc2[N+](=O)[O-])c(C(=O)c2ccccc2)c1
867	COc1ccc(OC)c(CCNC(=O)c2c(N3CCCC3=O)c3cc(OC)ccc3n2C)c1
972	CN(C)c1ccc(C(=O)Nc2cc(-c3cccs3)no2)cc1
924	COc1ccc(-c2nc3c4ccccc4ncn3n2)cc1
857	CCc1cccc(C)c1NC(=O)Cn1c(N(C)Cc2ccccc2)nc(C)cc1=O
940	CCN1C(=O)COc2ccc(-c3csc(NC(=O)c4cccs4)n3)cc21
942	CCOc1cccc(-c2noc(-c3nn(-c4ccccc4)ccc3=O)n2)c1
772	CCOC(=O)c1cccc(NC(=O)c2c(OCC)cc(=O)n3c2CCCC3)c1
608	Cn1c(CC2CCN(C(=O)COc3cccc(Cl)c3)C2)nc2cccnc21 (stereo unspecified)
928	Cc1ccc(Nc2c(-c3ccc(C(=O)O)cc3)nc3cnccn23)c(C)c1
943	CCOC(=O)c1ccc(Nc2c(-c3ccc(SC)cc3)nc3cnccn23)cc1
880	CCc1cccc(NC(=O)Cn2c(=O)c(CCC(=O)NCC(C)C)nc3ccccc32)c1
647	O=c1n(Cc2ccccc2)nc2c(S(=O)(=O)N3CCCCC3)cccn12
964	COc1cccc(N2CCN(c3ccnc(SCC(=O)Nc4cc(Cl)ccc4OC)n3)CC2)c1
644	C=CCn1c(=O)c2cnc(Nc3ccc(N4CCN(C)CC4)cc3)nc2n1-c1cccc(C(C)(C)O)n1
650	COCCNC(=O)c1cc(-c2ccccn2)nc2ccccc12
646	CCn1cnc2cc(CNC(=O)c3cc(C)cc(C)c3)ccc21
1180	Cc1ccc(-c2nc(Nc3ccc(Cl)cc3Cl)sc2CC(=O)O)cc1
1190	O=C(COc1ccc(Cl)cc1)Nc1nc(-c2ccc(Cl)cc2)cs1
731	Cc1csc(-c2nnc(Nc3ccc(Oc4ncccc4-c4ccnc(N)n4)cc3)c3ccccc23)c1
774	CCOc1cc(-c2ccc(F)cc2)nc2ccc(NC(=O)C3CCC3)cc12
588	COc1ccc(S(=O)(=O)N2CCN(c3ccccn3)CC2)cc1OC
924	COc1ccc(-c2noc(Cc3nnc(-c4cc(F)cc(F)c4)o3)n2)cc1OC
1050	COc1ccc(C)cc1NC(=O)Cn1nc2c(Oc3cc(C)cc(C)c3)nccn2c1=O
775	O=C(Cn1nc(C(=O)N2CCCC2)c2ccccc21)NCCc1cccs1
638	CCN1CCN(c2cc(C(=O)O)c3cc(NS(=O)(=O)c4ccc(C)cc4C)ccc3n2)CC1
527	CCOc1ccc2ncc(C(=O)c3ccccc3)c(N3CCN(C)CC3)c2c1
